Experimental findings from US7928136B2, “Substituted 2-indolinone as PTK inhibitors containing a zinc binding moiety” (Curis, Inc., priority 2006, dated 2011) are described below.

One series deals with HDAC. Briefly: HDAC fluorimetric assay kit (AK-500, Biomol), HeLa nuclear extract. The format is biochemical. The following applies: Fluor de Lys substrate. On the procedure: HDAC inhibitors were screened using an HDAC fluorimetric assay kit (AK-500, Biomol, Plymouth Meeting, Pa.). […] Each assay was setup as follows: Defrosted all kit components and kept on ice until use. Diluted HeLa nuclear extract 1:29 in Assay Buffer (50 mM Tris/Cl, pH 8.0, 137 mM NaCl, 2.7 mM KCl, 1 mM MgCl2). Prepared dilutions of Trichostatin A (TSA, positive control) and tested compounds in assay buffer (5× of final concentration). Diluted Fluor de Lys™ Substrate in assay buffer to 100 uM (50 fold=2× final). Diluted Fluor de Lys™ developer concentrate 20-fold (e.g. 50 μl plus 950 μl Assay Buffer) in cold assay buffer. Second, diluted the 0.2 mM Trichostatin A 100-fold in the 1× Developer (e.g. 10 μl in 1 ml; final Trichostatin A concentration in the 1× Developer=2 μM; final concentration after addition to HDAC/Substrate reaction=1 μM). Added Assay buffer, diluted trichostatin A or test inhibitor to appropriate wells of the microtiter plate. Added diluted HeLa extract or other HDAC sample to all wells except for negative controls. Allowed diluted Fluor de Lys™ Substrate and the samples in the microtiter plate to equilibrate to assay temperature (e.g. 25 or 37° C. Initiated HDAC reactions by adding diluted substrate (25 μl) to each well and mixing thoroughly. Allowed HDAC reactions to proceed for 1 hour and then stopped them by addition of Fluor de Lys™ Developer ([…]). Incubated plate at room temperature (25° C.) for 10-15 min. Read samples in a microtiter-plate reading fluorimeter capable of excitation at a wavelength in the range 350-380 nm and detection of emitted light in the range 440-460 nm.
(§1) The following TABLE B lists compounds representative of the invention and their activity in HDAC, VEGFR2 and PDGFR assays.

In a further series the target is T1, PDGFR-beta (Homo sapiens, UniProt P09619).
T1 construct: GST (N); HIS6 (N); Thrombin cleavage site (N); purchased Cell Signaling Technologies; host or cells: baculovirus expression system
Briefly: HTScan Receptor Kinase Assay, PDGFR-beta tyrosine kinase. The format is biochemical. The following applies: human PDGFR-beta kinase fragment, 200 μM ATP. On the procedure: (§2) Immediately transfer enzyme from −80° C. to ice. Allowed enzyme to thaw on ice. […] Returned immediately to ice. […] Incubated reaction plate at room temperature for 30 minutes. […] Added 100 μl/well primary antibody. Incubated at room temperature for 60 minutes. […] Added 100 μl/well diluted antibody. Incubated at room temperature for 30 minutes. […] Incubated at room temperature for 5 minutes.
as §1

The target in another series is T2, VEGFR2 (Homo sapiens, UniProt P35968).
T2 construct: GST (N); HIS6 (N); Thrombin cleavage site (N); purchased Cell Signaling Technologies; host or cells: baculovirus expression system
Briefly: HTScan Receptor Kinase Assay, VEGFR2 tyrosine kinase. The format is biochemical. The following applies: human VEGFR2 kinase domain, 200 μM ATP. On the procedure:
as §2, §1

T1 sequence (P09619 561-1106): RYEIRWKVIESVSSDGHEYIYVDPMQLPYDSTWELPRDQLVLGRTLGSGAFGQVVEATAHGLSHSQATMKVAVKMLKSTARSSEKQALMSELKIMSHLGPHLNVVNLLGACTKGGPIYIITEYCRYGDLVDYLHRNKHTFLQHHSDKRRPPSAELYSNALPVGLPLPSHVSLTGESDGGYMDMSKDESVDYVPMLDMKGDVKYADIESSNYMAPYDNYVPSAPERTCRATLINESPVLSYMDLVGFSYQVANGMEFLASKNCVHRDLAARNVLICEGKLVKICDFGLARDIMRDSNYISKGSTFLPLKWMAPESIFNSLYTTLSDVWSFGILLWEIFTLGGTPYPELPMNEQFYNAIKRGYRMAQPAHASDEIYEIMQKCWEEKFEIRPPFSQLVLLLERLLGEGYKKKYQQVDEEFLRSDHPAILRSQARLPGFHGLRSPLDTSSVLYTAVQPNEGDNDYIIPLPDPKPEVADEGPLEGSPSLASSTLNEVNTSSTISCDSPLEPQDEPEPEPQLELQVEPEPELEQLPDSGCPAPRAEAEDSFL
T2 sequence (P35968 807-1356 limits assumed): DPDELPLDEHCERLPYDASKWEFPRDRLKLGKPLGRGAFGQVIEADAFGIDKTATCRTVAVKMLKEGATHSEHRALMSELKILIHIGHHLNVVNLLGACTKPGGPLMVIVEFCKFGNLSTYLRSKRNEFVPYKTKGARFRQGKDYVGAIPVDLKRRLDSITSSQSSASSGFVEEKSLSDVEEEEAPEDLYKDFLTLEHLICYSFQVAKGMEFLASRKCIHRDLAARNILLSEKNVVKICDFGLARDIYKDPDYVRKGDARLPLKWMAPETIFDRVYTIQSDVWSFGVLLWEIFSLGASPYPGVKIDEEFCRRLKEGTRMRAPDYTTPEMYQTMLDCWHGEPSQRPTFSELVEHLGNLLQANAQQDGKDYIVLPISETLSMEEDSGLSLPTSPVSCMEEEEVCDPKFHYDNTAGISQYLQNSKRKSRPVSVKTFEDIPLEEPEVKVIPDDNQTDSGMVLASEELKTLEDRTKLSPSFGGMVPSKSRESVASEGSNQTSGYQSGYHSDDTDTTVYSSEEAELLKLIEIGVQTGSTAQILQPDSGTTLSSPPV

Consider `Cc1[nH]c(/C=C2\C(=O)Nc3ccc(F)cc32)c(C)c1C(=O)NCCC(=O)NO` [Compound 2, N-(2-(hydroxycarbamoyl)ethyl)-5-((Z)-(5-fluoro-2-oxoindolin-3-ylidene)methyl)-2,4-dimethyl-1H-pyrrole-3-carboxamide], for which the concentration for half-maximal inhibition (IC50) in the series with HDAC was 100 to 1000 nM; against PDGFR-beta it was 100 to 1000 nM; against VEGFR2 it was less than 100 nM.
For the molecule `Cc1[nH]c(/C=C2\C(=O)Nc3ccc(F)cc32)c(C)c1C(=O)NCCCC(=O)NO` [Compound 3, N-(3-(hydroxycarbamoyl)propyl)-5-((Z)-(5-fluoro-2-oxoindolin-3-ylidene)methyl)-2,4-dimethyl-1H-pyrrole-3-carboxamide], the concentration for half-maximal inhibition (IC50) in the series on HDAC is 1000 to 10000 nM; on PDGFR-beta, less than 100 nM; against VEGFR2, less than 100 nM.
Regarding `Cc1[nH]c(/C=C2\C(=O)Nc3ccc(F)cc32)c(C)c1C(=O)NCCCCCC(=O)NO` [Compound 4, N-(5-(hydroxycarbamoyl)pentyl)-5-((Z)-(5-fluoro-2-oxoindolin-3-ylidene)methyl)-2,4-dimethyl-1H-pyrrole-3-carboxamide], the melting point was 209.7 °C (dec.). Moreover, the IC50 with HDAC is 100 to 1000 nM. For the same molecule, at PDGFR-beta, the IC50 is less than 100 nM. This molecule also showed an IC50 at VEGFR2 of less than 100 nM.
Consider `Cc1[nH]c(/C=C2\C(=O)Nc3ccc(F)cc32)c(C)c1C(=O)NCCOc1ccc(C(=O)NO)cc1` [Compound 8, (Z)-5-((5-fluoro-2-oxoindolin-3-ylidene)methyl)-N-(2-(4-(hydroxycarbamoyl)phenoxy)ethyl)-2,4-dimethyl-1H-pyrrole-3-carboxamide], for which the IC50 with HDAC lay in the range of 100 to 1000 nM.
`Cc1[nH]c(/C=C2\C(=O)Nc3ccc(F)cc32)c(C)c1C(=O)NCCCCCC(=O)N(C)O` [Compound 9, (Z)-5-((5-fluoro-2-oxoindolin-3-ylidene)methyl)-N-(6-(hydroxy(methyl)amino)-6-oxohexyl)-2,4-dimethyl-1H-pyrrole-3-carboxamide]: the IC50 in the series on HDAC was more than 10000 nM; against VEGFR2 it was less than 100 nM.
As to `Cc1[nH]c(/C=C2\C(=O)Nc3ccc(F)cc32)c(C)c1C(=O)NCCOc1ccc(/C=C/C(=O)NO)cc1` [Compound 14, 5-((Z)-(5-fluoro-2-oxoindolin-3-ylidene)methyl)-N-(2-(4-((E)-3-(hydroxyamino)-3-oxoprop-1-enyl)phenoxy)ethyl)-2,4-dimethyl-1H-pyrrole-3-carboxamide], the IC50 with HDAC was 100 to 1000 nM; against VEGFR2, less than 100 nM.
With `Cc1[nH]c(/C=C2\C(=O)Nc3ccc(F)cc32)c(C)c1C(=O)NCCCCCCC(=O)NO` [Compound 15, (Z)-5-((5-Fluoro-2-oxoindolin-3-ylidene)methyl)-N-(7-(hydroxyamino)-7-oxoheptyl)-2,4-dimethyl-1H-pyrrole-3-carboxamide], the melting point was 221 °C (dec.). Further, the IC50 in the series on HDAC was less than 100 nM. Besides, the IC50 on PDGFR-beta lay in the range of 100 to 1000 nM. On VEGFR2, this molecule returned a half-maximal inhibitory concentration (IC50) of less than 100 nM.
For the molecule `Cc1[nH]c(/C=C2\C(=O)Nc3ccc(F)cc32)c(C)c1C(=O)NCCCCCCCC(=O)NO` [Compound 16, (Z)-5-((5-Fluoro-2-oxoindolin-3-ylidene)methyl)-N-(8-(hydroxyamino)-8-oxooctyl)-2,4-dimethyl-1H-pyrrole-3-carboxamide], the melting point is 213.7 °C (dec.). This molecule returned a 50% inhibitory concentration (IC50) in the series on HDAC of less than 100 nM. For the same molecule, the half-maximal inhibitory concentration (IC50) against PDGFR-beta was 100 to 1000 nM. On VEGFR2, this molecule displayed an IC50 of less than 100 nM.
